Square brackets hold non-standard residues; d marks the D form. Peptide text beside a SMILES is read from it. Nspe = C[C@H](NCC(=O)O)c1ccccc1; Nlys = NCCCCNCC(=O)O
What was measured:
[1] = system: NIH 3T3 mouse fibroblast cells; test: MTS assay, metabolic inhibition; type: cell-based; conditions: Table 3; NIH 3T3 cells
Procedure, shortened: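 NIH/3T3 cells seeded at 5,000 per well, grown a day, then exposed to serially diluted peptoids in HBSS together with MTS reagent. Absorbance at 490 nm read after 3 hours at 37° C.; mean of six replicates.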

B. subtilis BR151 = type: cell-based; conditions: Table 1
Excerpt: An initial set of 15 ampetoid analogs was synthesized to determine whether peptoids are affected by structural and sequence modifications in a manner consistent with AMP activities. The designs for ampetoids in this library were derived from two antibacterial and selective amphipathic dodecamers, 1 and 2. Peptoid 1 [H-(Nlys-Nspe-Nspe)4—NH2] is composed of 2/3 Nspe, the peptoid analog of phenylalanine, and 1/3 Nlys, the peptoid analog of lysine (see FIG. 1 for the structures of representative peptoid monomers and corresponding N-substituents). Peptoid 2 [H-(Nlys-Nssb-Nspe)4—NH2] contains 1/3 isoleucine-like Nssb monomers in place of Nspe. The variant sequences were designed to effect changes in chirality, length, hydrophobicity, charge, and amphipathicity. All of these compounds were tested for antibacterial activity against representative BSL1 Gram-negative (E. coli JM109) and Gram-positive (B. subtilis BR151) bacterial strains. As an initial measure of selectivity, the lytic activity of the peptoids was determined against human erythrocytes. Table 1 summarizes the sequences synthesized, the solvent composition at RP-HPLC elution as a relative measure of molecular hydrophobicity, and antibacterial and hemolytic activities.
(§1) Antibacterial assays. MICs were determined according to CLSI M7-A6 protocols in a 96-well microtiter plate. In test wells, 50 μL bacterial inoculum (5×10^5 CFU/ml) in Mueller-Hinton broth (MHB) was added to 50 μL peptoid solution in MHB (prepared by 1:2 serial dilutions). Positive controls contained 50 μL inoculum and 50 μL MHB without peptoid. […] MIC values reported were reproducible between three independent experimental replicates, each consisting of two parallel trials. Broad-spectrum antimicrobial susceptibility testing was performed against BSL2 pathogens by Nova Biologicals, Inc. (Conroe, Tex.).

B. subtilis = type: cell-based; conditions: Table 2; cation-adjusted broth
Protocol: as §1
(§2) Screening antibacterial assays. MICs were determined in 96-well microtiter plates in accordance with CLSI M7-A6 protocols. Peptoid solutions with 50 μL total volume were prepared using 2:1 serial dilutions. 50 μL of bacteria inoculum (1×10^6 CFU/mL) prepared in cation-adjusted Mueller-Hinton broth (CAMHB) was added to test wells. Control wells contained 100 μL MHB (no growth) or 50 μL inoculums with 50 μL MHB with no peptoid. […] Reported values were reproducible over three experiments, each containing two parallel trials.

E. coli = type: cell-based; conditions: Table 2; cation-adjusted broth
Protocol: as §1, §2

[2] = system: Staphyloccus aureus (ATCC #25923); test: Murine intraperitoneal infection model; type: in vivo; conditions: mouse, 4 mg/kg I.P.; eleven mice treated with 1-Nhis6,12
Protocol: Using a murine peritoneal injection mouse model, the ability of peptoids to treat infection was evaluated in vivo. The results from three separate studies of peptoid 1 and two of peptoid 1-Nhis6,12 against saline treated controls are shown in FIG. 7. The horizontal line represents the geometric mean of each population.
Murine intraperitoneal infection model. Bacteria was prepared by inoculating 5 mL of MHB with a single colony of Staphyloccus aureus (ATCC #25923) from a freshly streaked plate and grown overnight at 37 C. The following morning, the bacteria was subcultured by diluting 1/3 in MHB and grown for approximately 1.5 hours. The bacteria were then diluted 10-fold in a 5% mucin in PBS solution and thoroughly mixed. A sample was reserved to later determine the amount of bacteria the mice received.
Mice were weighed, marked, and injected I.P. with 200 uL of S. aureus inoculum. Four hours post infection, mice were treated I.P. with 4 mg/kg peptoid (˜100 ug per mouse). The infection is allowed to proceed overnight. Mice were euthanized by CO2 asphyxiation after 24 hours, and the peritoneal cavity was exposed and lavaged with 5 mL PBS. The lavage was mixed and reserved on ice until plating. […] Colonies were counted the following day, and the CFU/ml of each sample was calculated. […]

[3] = system: Candida albicans (SC5314); type: cell-based, C. albicans; conditions: Table 2
Protocol: Additionally, in order to characterize possible antifungal activity, a library of alkylated compounds was tested against C. albicans, a representative fungal strain.
Antifungal Assays. MICs were determined using the broth microdilution assay given by CLSI M27-A2 protocols. Candida albicans (SC5314) was grown on Sabouraud dextrose agar for 24 hours at 30° C. Cells were suspended in 0.145 M saline, and the cell concentration was adjusted to 3×10^6 cells/mL. After adjusting the cell concentration, the suspension was diluted 1:1000 with RPMI 1640 (with L-glutamine and without sodium bicarbonate, Invitrogen) buffered with 0.145 M 3-(N-morpholino) propanesulfonic acid (MOPS). Two-fold serial dilutions of peptoids, peptides, and amphotericin B (Calbiochem) were prepared in RPMI 1640 and mixed with an equal volume of the cell suspension in 96-well plates. The final testing concentrations for the peptoids and peptides were 0.20 to 100 μM, and concentrations for amphotericin B were 0.031 to 16 μM. Growth controls and sterility controls were also included. Plates were incubated for 48 hours at 35° C., and growth of C. albicans was inspected visually to determine the MICs. The MIC for each compound was defined as the lowest concentration with no visible fungal growth. Experiments were performed in duplicate on two separate days.

SMILES: C[C@@H](c1ccccc1)N(CC(N)=O)C(=O)CN(C(=O)CN(CCCCN)C(=O)CN(C(=O)CN(C(=O)CN(CCCCN)C(=O)CN(C(=O)CN(C(=O)CN(CCCCN)C(=O)CN(C(=O)CN(C(=O)CNCCCCN)[C@@H](C)c1ccccc1)[C@@H](C)c1ccccc1)[C@@H](C)c1ccccc1)[C@@H](C)c1ccccc1)[C@@H](C)c1ccccc1)[C@@H](C)c1ccccc1)[C@@H](C)c1ccccc1 [compound 1, H-(NLys-Nspe-Nspe)4-NH2] (H-[Nlys][Nspe][Nspe][Nlys][Nspe][Nspe][Nlys][Nspe][Nspe][Nlys][Nspe][Nspe]-NH2)
- ID10 (10% metabolic inhibitory concentration) [1]: 5.1
- ID50 (50% metabolic inhibitory concentration) [1]: 1.4
- B. subtilis MIC (B. subtilis BR151): 0.88 µM
- B. subtilis MIC (B. subtilis): 1.6 µM
- E. coli MIC (E. coli): 6.3 µM
- mice that died prematurely during the exposure period [2]: no mice
- C. albicans MIC [3]: 6.3 µM

Source: patent publication US20100036088A1, “Selective poly-N-substituted glycine antibiotics” (priority 2008, published 2010)
